# Source: US20200179369A1, “TREATMENT OF DIABETIC NEPHROPATHY” (TAKEDA GMBH, priority 2015, published 2020)
# Assays:
# [1] = test system: type 1 collagen α1 chain mRNA; test: TGF-β-induced mRNA expression of type 1 collagen α1 chain in human mesangial cells; type: cell-based; conditions: in the presence of forskolin 1 μM, TGF-β 3 ng/mL, 24 h
# Protocol: Human mesangial cells were purchased from DS Pharma Biomedical (US). Compound A was obtained from Takeda GmbH, Konstanz, Germany. Forskolin and dimethyl sulfoxide (DMSO) were purchased from Wako Pure Chemical Industries, Ltd (Japan). Recombinant human TGF-β was purchased from R&D systems (USA).
# On day 0, human mesangial cells were seeded at a cell density of 2×10^5 cells/well in CSC complete medium (Cell Systems, USA) on type 1 collagen-coated 24-well plate (AGC TECHNO GLASS Co. Ltd., Japan) in an atmosphere of 95% air and 5% CO2 at 37° C. On day 1, the cells were serum starved with CMC medium which is not containing serum and growth factors. On day 2, Compound A at final concentrations of 0.001, 0.01, 0.1, 1 and 10 μM or DMSO (control) was added to the culture medium. […] For the measurement of mRNA levels of type 1 collagen α1 chain and fibronectin, total RNA isolated at 24 hours after forskolin/TGF-β stimulation was used. mRNA expression levels were measured by quantitative real-time RT-PCR methods with TaqMan gene expression master mix and ABI PRISM 9700 (Life Technologies, USA) with target mRNA specific primer and probe sets [Human connective tissue growth factor (Hs1026927_g1); Human plasminogen activator inhibitor-1 (Hs00167155_m1); Human type 1 collagenal chain (Hs00164004_m1); Human fibronectin (HS00365052_m1); Humanglyceraldehyde 3-phosphate dehydrogenase (HS2758991_g1)]. […]
# female db/db mice = test: HbA1c, 4 weeks treatment in female db/db mice; type: in vivo; conditions: 28 days, vehicle 9.06%
# Protocol: Female db/db mice were purchased from Taconic (Lille Skensved, Denmark) at 5-6 weeks of age and were maintained under standard conditions (5 animals/cage; 12 h light-dark cycle; room temperature of 22±2° C.; relative humidity of 60±15%). All mice had free access to water and standard chow (Provimi Kliba, Kaiseraugst, Switzerland). Four days upon arrival animals were randomized based on body weight and levels of glycated hemoglobin 1c (HbA1c). At 7 weeks of age, animals were treated daily by oral gavage with vehicle (4% methylcellulose) or with Compound A (composed in aqueous 4% methylcellulose) using doses of 1, 3 and 10 mg/kg s.i.d. (doses related to free base). The required dose was applied in a volume of 10 ml/kg body weight. Each dose group consisted of 10 animals. At the end of the treatment period plasma samples were isolated for determination of HbA1c levels. All experimental procedures were conducted according to the German Animal Protection Law.
# HbA1c was analyzed from tail-tip-blood (HbA1c determination before treatment) as well as from blood collected from the retro-orbital venous plexus (HbA1c determination after 4 weeks treatment) using the Hemoglobin A1c Test (Siemens, Bad Nauheim, Germany).
# Values are presented as means ±SEM. Statistical differences were determined using one-way-ANOVA followed by a post-hoc analysis with Dunnet's correction (GraphPad Prism).
# Definition of significance: n.s.=not significant (p>0.05) • *, **, ***=p<0.05, <0.01, <0.001
structure (smiles),measurement,setting,value
"CCOc1cc2c(cc1OC)C(c1ccc(=O)n(C)c1)=N[C@@H]1CC[C@@H](O)C[C@H]21 [Compound A, 5-((2R,4aR,10bR)-9-Ethoxy-2-hydroxy-8-methoxy-1,2,3,4,4a,10b-hexahydro-phenanthridin-6-yl)1-methyl-1H-pyridin-2-one]",concentration at which the inhibitory effect on mRNA expression of type 1 collagen α1 chain was further enhanced,[1],≥ 0.1 µM
same,mean HbA1c,female db/db mice; 1 mg/kg oral s.i.d.,7.27%
same,mean HbA1c,female db/db mice; 3 mg/kg oral s.i.d.,7.06%
same,mean HbA1c,female db/db mice; 10 mg/kg oral s.i.d.,6.16%
